In ChEMBL document CHEMBL3585260, “2-Aminoalkyl nicotinamide derivatives as pure inverse agonists of the ghrelin receptor” (Bioorg Med Chem Lett, 2015):
Blank lines part the entries; values can stand above or below the compound they belong to. Calls of active or inactive are those of the source. The calls are words filed in the database; no cut-off is given here.

What was measured:
[1] = target: T1, Growth hormone secretagogue receptor type 1 (Rattus norvegicus, UniProt O08725); assay: Inverse agonist activity at rat ghrelin receptor expressed in HEK293 cells by inositol phosphate turnover assay; assay type: functional, cell-based
T1 sequence (O08725 whole entry): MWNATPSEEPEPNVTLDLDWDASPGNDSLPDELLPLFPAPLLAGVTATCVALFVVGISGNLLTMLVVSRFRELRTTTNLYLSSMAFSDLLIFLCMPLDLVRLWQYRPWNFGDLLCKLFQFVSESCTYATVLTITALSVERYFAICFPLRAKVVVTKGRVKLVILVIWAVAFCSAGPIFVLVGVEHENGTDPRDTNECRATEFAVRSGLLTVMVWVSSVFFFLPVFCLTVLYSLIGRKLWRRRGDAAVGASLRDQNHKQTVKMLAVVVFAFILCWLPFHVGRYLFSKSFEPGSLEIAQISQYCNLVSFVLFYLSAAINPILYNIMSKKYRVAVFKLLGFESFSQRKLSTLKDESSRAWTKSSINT

[2] = target: T1, Growth hormone secretagogue receptor type 1; assay: Inverse agonist activity at rat ghrelin receptor by inositol phosphate turnover assay; assay type: functional
[3] = target: T1, Growth hormone secretagogue receptor type 1; assay: Inverse agonist activity at rat ghrelin receptor expressed in HEK293 cells by NFAT-RE-luciferase reporter gene assay; assay type: cell-based
[4] = Toxicity against HEK293 cells assessed as cell viability at 50 uM by alamar blue staining method; assay type: cell-based; details: human, read-out: Activity
[5] = target: Growth hormone secretagogue receptor type 1 (Rattus norvegicus) (UniProt O08725); assay: Inverse agonist activity at rat ghrelin receptor expressed in HEK293 cells assessed as blockade of constitutive receptor activity b by NFAT-RE-luciferase reporter gene assay; assay type: cell-based
Growth hormone secretagogue receptor type 1 (Rattus norvegicus), sequence (O08725 whole entry): as above

[6] = Toxicity against HEK293 cells assessed as cell viability at 2 uM by alamar blue staining method; assay type: cell-based; details: human, read-out: Activity
[7] = target: T2, Growth hormone secretagogue receptor type 1 (Homo sapiens, UniProt Q92847); assay: Binding affinity to ghrelin receptor (unknown origin)
T2 sequence (Q92847 whole entry): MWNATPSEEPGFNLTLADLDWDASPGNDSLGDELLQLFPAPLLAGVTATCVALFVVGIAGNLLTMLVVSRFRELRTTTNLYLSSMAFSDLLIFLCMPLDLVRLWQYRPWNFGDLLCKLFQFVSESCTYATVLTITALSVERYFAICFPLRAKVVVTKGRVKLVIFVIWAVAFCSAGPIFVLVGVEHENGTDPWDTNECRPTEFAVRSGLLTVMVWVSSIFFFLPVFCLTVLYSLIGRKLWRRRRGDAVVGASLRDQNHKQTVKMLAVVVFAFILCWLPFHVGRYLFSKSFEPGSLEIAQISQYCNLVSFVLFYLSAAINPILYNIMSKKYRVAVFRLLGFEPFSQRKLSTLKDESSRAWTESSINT

[8] = target: Neurotensin receptor type 2 (Homo sapiens) (UniProt O95665); assay: Inverse agonist activity at NTSR2 (unknown origin) expressed in HEK293 cells assessed as suppression of constitutive receptor activity by NFAT-RE-luciferase reporter gene assay; assay type: cell-based
Neurotensin receptor type 2 (Homo sapiens), sequence (O95665 whole entry): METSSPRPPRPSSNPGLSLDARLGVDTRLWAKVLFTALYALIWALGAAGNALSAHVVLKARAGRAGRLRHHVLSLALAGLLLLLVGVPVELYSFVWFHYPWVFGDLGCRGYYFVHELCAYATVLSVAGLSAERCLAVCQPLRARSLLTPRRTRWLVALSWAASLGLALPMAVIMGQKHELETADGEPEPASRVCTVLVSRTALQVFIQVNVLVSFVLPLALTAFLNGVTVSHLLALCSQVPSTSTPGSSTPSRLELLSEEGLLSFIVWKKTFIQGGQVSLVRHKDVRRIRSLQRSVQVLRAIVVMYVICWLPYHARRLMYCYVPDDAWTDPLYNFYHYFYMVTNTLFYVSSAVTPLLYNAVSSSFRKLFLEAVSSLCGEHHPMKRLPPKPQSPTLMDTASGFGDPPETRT

[9] = system: HEK293; assay: Toxicity against HEK293 cells assessed as cell viability up to 10 uM by alamar blue staining method; assay type: cell-based; details: human
[10] = system: HEK293; assay: Toxicity against HEK293 cells assessed as cell viability at >10 uM by alamar blue staining method; assay type: cell-based; details: human
[11] = system: Salmonella typhimurium; assay: Mutagenicity in Salmonella typhimurium by Ames test; assay type: toxicity, organism-based; details: salmonella enterica subsp. enterica serovar typhimurium
[12] = system: Mus musculus; assay: Inhibition of ghrelin-induced food intake in mouse model of high fat diet-induced obesity at 10 mg/kg, sc dosed twice daily for 14 days; assay type: functional, organism-based
[13] = Bioavailability in mouse at 10 mg/kg, ip administered as single dose; assay type: ADME, organism-based; details: in vivo
[14] = target: Melanocortin receptor 4 (Homo sapiens) (UniProt P32245); assay: Inhibition of radioligand binding at human melanocortin MC4 receptor at 10 uM
[15] = target: Sodium-dependent noradrenaline transporter (Homo sapiens) (UniProt P23975); assay: Inhibition of radioligand binding at human NET at 10 uM
[16] = system: Mus musculus; assay: Inhibition of ghrelin-induced food intake in mouse model of high fat diet-induced obesity at 30 mg/kg, sc dosed twice daily for 14 days; assay type: functional, organism-based
[17] = system: Rattus norvegicus; assay: Inhibition of ghrelin-induced growth hormone release in rat at 3 mg/kg, iv pre-treated 5 mins before ghrelin challenge; assay type: functional, organism-based
[18] = system: Rattus norvegicus; assay: Inhibition of ghrelin-induced food intake in rat at 15 to 30 mg/kg, ip after 30 mins; assay type: functional, organism-based
[19] = Oral bioavailability in mouse at 10 mg/kg, administered as single dose; assay type: ADME, organism-based; details: in vivo
[20] = target: 5-hydroxytryptamine receptor 2C (Homo sapiens) (UniProt P28335); assay: Inhibition of radioligand binding at human 5HT2C receptor at 10 uM
5-hydroxytryptamine receptor 2C (Homo sapiens), sequence (P28335 whole entry): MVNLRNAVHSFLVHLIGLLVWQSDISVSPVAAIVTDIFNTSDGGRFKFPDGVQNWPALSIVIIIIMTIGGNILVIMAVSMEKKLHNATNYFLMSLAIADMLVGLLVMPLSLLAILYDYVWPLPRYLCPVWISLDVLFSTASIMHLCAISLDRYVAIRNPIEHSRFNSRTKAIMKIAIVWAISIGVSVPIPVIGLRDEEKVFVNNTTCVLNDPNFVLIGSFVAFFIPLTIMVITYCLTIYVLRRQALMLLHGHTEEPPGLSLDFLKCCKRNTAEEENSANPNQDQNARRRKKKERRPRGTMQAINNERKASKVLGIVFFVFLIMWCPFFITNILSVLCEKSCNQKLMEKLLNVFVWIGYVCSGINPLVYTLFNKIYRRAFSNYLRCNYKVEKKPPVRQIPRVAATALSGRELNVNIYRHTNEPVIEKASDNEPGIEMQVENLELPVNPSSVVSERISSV

[21] = Protein binding in human plasma; assay type: ADME, cell-free; details: read-out: PPB
[22] = target: D(2) dopamine receptor (Homo sapiens) (UniProt P14416); assay: Inhibition of radioligand binding at dopamine D2 receptor (unknown origin) at 10 uM
D(2) dopamine receptor (Homo sapiens), sequence (P14416 whole entry): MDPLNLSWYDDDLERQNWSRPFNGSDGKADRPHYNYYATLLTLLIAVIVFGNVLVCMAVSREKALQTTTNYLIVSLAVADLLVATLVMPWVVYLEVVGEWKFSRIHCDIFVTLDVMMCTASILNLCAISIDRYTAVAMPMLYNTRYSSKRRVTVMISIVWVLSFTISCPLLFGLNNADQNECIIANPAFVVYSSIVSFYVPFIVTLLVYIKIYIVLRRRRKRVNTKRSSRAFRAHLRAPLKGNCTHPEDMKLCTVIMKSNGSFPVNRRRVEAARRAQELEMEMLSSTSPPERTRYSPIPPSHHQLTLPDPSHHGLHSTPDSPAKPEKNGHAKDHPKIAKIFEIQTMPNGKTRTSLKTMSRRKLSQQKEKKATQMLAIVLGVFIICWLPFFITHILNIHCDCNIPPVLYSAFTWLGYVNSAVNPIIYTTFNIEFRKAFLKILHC

[23] = Ratio of drug level in brain to plasma in mouse at 10 mg/kg, ip administered as single dose after 1 hr; assay type: ADME, organism-based; details: brain and plasma, read-out: BPR
[24] = Bioavailability in mouse at 10 mg/kg, sc administered as single dose; assay type: ADME, organism-based; details: in vivo
[25] = target: Adrenergic receptor alpha-2 (Homo sapiens) (UniProt P08913+P18825+P18089); assay: Inhibition of radioligand binding at alpha-2 adrenergic receptor (unknown origin) at 10 uM
[26] = system: Mus musculus; assay: Toxicity in mouse model of high fat diet-induced obesity assessed as induction of sedation at 10 and 30 mg/kg, sc; assay type: organism-based; details: in vivo
[27] = target: D(1A) dopamine receptor (Homo sapiens) (UniProt P21728); assay: Inhibition of radioligand binding at dopamine D1 receptor (unknown origin) at 10 uM
[28] = system: Liver microsome; assay: Drug metabolism in human liver microsomes; assay type: ADME
[29] = system: Rattus norvegicus; assay: Toxicity in rat assessed as induction of behavioral effect at 10 to 30 mg/kg, ip; assay type: organism-based; details: in vivo
[30] = system: Rattus norvegicus; assay: Inhibition of ghrelin-induced gastric emptying in rat assessed as suppression of gastric motility at 10 mg/kg, sc pre-treated 15 mins before ghrelin challenge; assay type: functional, organism-based; details: Stomach
[31] = target: Motilin receptor (Homo sapiens) (UniProt O43193); assay: Inhibition of radioligand binding at human MTLR1 at 10 uM
Motilin receptor (Homo sapiens), sequence (O43193 whole entry): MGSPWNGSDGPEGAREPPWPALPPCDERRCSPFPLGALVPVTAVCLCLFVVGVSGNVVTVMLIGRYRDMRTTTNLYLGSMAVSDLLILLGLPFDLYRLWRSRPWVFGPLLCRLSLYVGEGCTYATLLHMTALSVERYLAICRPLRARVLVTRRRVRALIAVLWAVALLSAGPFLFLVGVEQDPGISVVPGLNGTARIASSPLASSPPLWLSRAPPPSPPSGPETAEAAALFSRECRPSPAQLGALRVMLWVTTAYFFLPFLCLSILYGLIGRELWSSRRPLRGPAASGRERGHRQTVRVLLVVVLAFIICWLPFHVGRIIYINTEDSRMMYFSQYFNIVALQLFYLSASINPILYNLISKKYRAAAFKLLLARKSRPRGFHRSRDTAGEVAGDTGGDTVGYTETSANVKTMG

[32] = target: CYP3A4 (Homo sapiens, UniProt P08684); assay: Inhibition of CYP3A4 (unknown origin) at 10 uM; assay type: ADME
CYP3A4, sequence (P08684 whole entry): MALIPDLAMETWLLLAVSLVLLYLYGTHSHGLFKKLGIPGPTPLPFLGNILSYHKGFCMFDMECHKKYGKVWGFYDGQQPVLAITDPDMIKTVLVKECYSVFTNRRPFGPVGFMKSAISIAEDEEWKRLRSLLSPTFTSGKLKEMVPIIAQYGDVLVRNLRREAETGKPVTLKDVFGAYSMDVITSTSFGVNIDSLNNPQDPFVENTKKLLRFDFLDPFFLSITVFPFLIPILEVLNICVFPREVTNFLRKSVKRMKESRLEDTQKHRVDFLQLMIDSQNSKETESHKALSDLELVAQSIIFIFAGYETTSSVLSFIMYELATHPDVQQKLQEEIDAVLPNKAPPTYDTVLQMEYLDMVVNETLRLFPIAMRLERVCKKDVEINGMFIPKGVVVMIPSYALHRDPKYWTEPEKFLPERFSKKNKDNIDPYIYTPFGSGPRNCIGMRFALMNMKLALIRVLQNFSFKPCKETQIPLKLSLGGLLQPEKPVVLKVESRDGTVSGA

[33] = Inhibition of ghrelin-induced growth hormone release in rat primary pituitary cells; assay type: functional, cell-based; details: Pituitary gland cell
[34] = target: Cholecystokinin receptor type A (Homo sapiens) (UniProt P32238); assay: Inhibition of radioligand binding at human CCKA at 10 uM
Cholecystokinin receptor type A (Homo sapiens), sequence (P32238 whole entry): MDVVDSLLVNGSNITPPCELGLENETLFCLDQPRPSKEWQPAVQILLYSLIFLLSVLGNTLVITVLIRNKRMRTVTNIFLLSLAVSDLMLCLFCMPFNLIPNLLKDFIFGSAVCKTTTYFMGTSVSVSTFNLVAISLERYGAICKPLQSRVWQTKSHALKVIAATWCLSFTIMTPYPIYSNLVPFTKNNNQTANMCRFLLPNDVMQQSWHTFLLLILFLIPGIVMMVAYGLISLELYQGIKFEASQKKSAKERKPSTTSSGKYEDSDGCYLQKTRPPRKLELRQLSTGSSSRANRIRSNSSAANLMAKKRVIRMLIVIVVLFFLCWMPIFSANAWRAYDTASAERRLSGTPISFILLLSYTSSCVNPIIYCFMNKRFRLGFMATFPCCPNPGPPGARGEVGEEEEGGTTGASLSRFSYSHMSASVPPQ

[35] = system: Rattus norvegicus; assay: Toxicity in rat assessed as induction of sedation at 10 to 30 mg/kg, ip; assay type: organism-based; details: in vivo
[36] = target: Neuropeptide Y receptor type 1 (Homo sapiens) (UniProt P25929); assay: Inhibition of radioligand binding at human neuropeptide Y1 receptor at 10 uM
Neuropeptide Y receptor type 1 (Homo sapiens), sequence (P25929 whole entry): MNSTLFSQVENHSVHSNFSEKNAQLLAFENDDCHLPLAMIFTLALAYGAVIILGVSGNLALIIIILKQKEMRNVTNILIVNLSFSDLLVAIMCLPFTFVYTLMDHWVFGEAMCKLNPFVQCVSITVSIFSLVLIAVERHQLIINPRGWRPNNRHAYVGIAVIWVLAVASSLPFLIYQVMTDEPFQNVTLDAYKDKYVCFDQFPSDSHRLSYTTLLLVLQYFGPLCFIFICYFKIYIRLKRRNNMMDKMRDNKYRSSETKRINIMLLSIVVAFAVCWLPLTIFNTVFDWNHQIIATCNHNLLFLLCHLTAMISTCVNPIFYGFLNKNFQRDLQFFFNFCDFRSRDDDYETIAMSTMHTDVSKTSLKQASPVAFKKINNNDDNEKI

[37] = system: Rattus norvegicus; assay: Inhibition of ghrelin-induced gastric emptying in rat assessed as suppression of gastric content at 10 mg/kg, sc pre-treated 15 mins before ghrelin challenge; assay type: functional, organism-based; details: Stomach
[38] = Total clearance in mouse at 10 mg/kg administered as single dose; assay type: ADME, organism-based; details: in vivo
[39] = system: Mus musculus; assay: Toxicity in mouse model of high fat diet-induced obesity assessed as induction of behavioral effect at 10 and 30 mg/kg, sc; assay type: organism-based; details: in vivo
[40] = target: Sodium-dependent serotonin transporter (Homo sapiens) (UniProt P31645); assay: Inhibition of radioligand binding at human SERT at 10 uM
Sodium-dependent serotonin transporter (Homo sapiens), sequence (P31645 whole entry, looked up): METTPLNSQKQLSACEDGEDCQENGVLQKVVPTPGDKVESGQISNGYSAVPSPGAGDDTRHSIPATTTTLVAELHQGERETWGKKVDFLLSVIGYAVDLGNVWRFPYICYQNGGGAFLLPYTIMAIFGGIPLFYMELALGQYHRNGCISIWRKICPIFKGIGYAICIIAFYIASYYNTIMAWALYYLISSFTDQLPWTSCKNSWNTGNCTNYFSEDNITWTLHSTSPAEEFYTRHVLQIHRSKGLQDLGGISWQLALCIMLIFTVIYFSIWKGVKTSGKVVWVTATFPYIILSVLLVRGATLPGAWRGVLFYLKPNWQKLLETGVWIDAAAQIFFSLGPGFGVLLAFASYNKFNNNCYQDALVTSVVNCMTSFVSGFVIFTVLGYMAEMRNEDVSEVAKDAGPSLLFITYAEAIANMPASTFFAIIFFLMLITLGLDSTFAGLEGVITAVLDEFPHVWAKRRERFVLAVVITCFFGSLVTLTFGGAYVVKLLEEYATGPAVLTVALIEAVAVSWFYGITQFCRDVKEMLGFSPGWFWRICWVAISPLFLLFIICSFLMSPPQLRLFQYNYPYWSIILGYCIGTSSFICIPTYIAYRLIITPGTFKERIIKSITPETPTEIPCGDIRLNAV

[41] = target: hERG (KCNH2) (Homo sapiens, UniProt Q12809); assay: Inhibition of human ERG at 10 uM
[42] = target: Cannabinoid receptor 1 (Homo sapiens) (UniProt P21554); assay: Inhibition of radioligand binding at human CB1 receptor at 10 uM
Cannabinoid receptor 1 (Homo sapiens), sequence (P21554 whole entry): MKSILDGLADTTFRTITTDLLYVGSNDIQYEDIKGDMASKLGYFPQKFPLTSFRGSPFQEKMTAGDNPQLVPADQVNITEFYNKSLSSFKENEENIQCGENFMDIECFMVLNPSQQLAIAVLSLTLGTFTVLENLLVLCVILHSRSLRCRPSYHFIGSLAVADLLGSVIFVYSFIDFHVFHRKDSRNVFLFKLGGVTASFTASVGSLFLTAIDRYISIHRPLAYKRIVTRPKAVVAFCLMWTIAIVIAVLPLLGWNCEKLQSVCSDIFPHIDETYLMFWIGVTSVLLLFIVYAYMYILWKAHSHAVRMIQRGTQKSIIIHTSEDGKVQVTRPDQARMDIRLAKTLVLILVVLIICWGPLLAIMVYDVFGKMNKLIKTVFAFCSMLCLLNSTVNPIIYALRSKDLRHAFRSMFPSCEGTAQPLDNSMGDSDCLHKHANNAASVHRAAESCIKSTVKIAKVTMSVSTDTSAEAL

[43] = target: T2, Growth hormone secretagogue receptor type 1; assay: Antagonist activity against ghrelin receptor (unknown origin) expressed in CHO cells assessed as inhibition of ghrelin-induced calcium response; assay type: functional, cell-based

Compound: H-RPKPFQWFWLL-NH2
- IC50 [1]: 146 nM
- IC50 [2]: 5.2 nM
- IC50 [3]: 250 nM

Compound: O=C(NCC1COc2ccccc2O1)c1cc(-c2ccnc(Cl)c2)cnc1NCc1ccc2c(c1)OCC2 (racemic)
- Efficacy [5]: > 95%
- IC50 [7]: 6.9 nM
- Activity [8]: inactive
- IC50 [3]: 390 nM

Compound: CCCn1cc(-c2cnc(NCc3ccc4occc4c3)c(C(=O)NCC3COc4ccccc4O3)c2)cn1 (stereo not drawn)
- Efficacy [5]: > 95%
- IC50 [7]: 150 nM
- Activity [8]: inactive
- IC50 [3]: 720 nM

Compound: CC(C)N1[C@@H]2CC[C@H]1C=C(c1cnc(NCc3ccc4c(c3)OCC4)c(C(=O)NC[C@H]3COc4ccccc4O3)c1)C2 (mixture of isomers)
- Efficacy [5]: > 95%
- IC50 [7]: 0.23 nM
- Activity [8]: inactive
- Activity [9]: Toxic
- IC50 [3]: 4.1 nM
- Activity [10]: Toxic

Compound: O=C(NC[C@H]1COc2ccccc2O1)c1cc(N2C[C@H]3CC[C@@H](C2)O3)cnc1NCc1ccc2c(c1)OCO2
- Efficacy [5]: > 95%
- IC50 [7]: 5.4 nM
- Activity [8]: inactive
- IC50 [3]: 560 nM

Compound: CCCn1cc(-c2cnc(NCc3ccc4ncsc4c3)c(C(=O)NCC3COc4ccccc4O3)c2)cn1 (stereo not drawn)
- Efficacy [5]: > 95%
- IC50 [7]: 260 nM
- Activity [8]: inactive
- IC50 [3]: 900 nM

Compound: CC(=O)N1CC=C(c2cnc(NCc3ccc4c(c3)OCO4)c(C(=O)NC[C@H]3COc4ccccc4O3)c2)CC1
- Efficacy [5]: > 95%
- IC50 [7]: 42 nM
- Activity [8]: inactive
- IC50 [3]: 2500 nM

Compound: CCn1cc(-c2cnc(NCc3ccc4c(c3)OCO4)c(C(=O)NC[C@@H]3COc4ccccc4O3)c2)cn1
- Efficacy [5]: > 95%
- IC50 [7]: 180 nM
- Activity [8]: inactive
- IC50 [3]: 5500 nM

Compound: O=C(NC[C@H]1COc2ccccc2O1)c1cc(N2CCOCC2)cnc1NCc1ccc2c(c1)OCO2
- Efficacy [5]: > 95%
- IC50 [7]: 47 nM
- Activity [8]: inactive
- IC50 [3]: 2000 nM

More lines, main results first:

- Efficacy [5]: > 95%
- IC50 [7]: 36 nM
- Activity [8]: inactive
- IC50 [3]: 170 nM
Compound: CCCn1cc(-c2cnc(NCc3ccc4c(c3)OCO4)c(C(=O)NCC3COc4ccccc4O3)c2)cn1 (stereo not drawn)
- viability at 50 µM [4]: 69%
- viability at 2 µM [6]: 85%

- bioavailability [13]: 83.2%
- inhibition [14]: 2.4%
- inhibition [15]: 0%
- bioavailability [19]: 0.64%
- inhibition [20]: 7.1%
- fraction unbound [21]: 0.01
- inhibition [22]: 7.1%
- Kp at 1 h [23]: 0.005
- Efficacy [5]: > 95%
- bioavailability [24]: 99.1%
- inhibition [25]: 12.6%
- inhibition [27]: 5.6%
- Drug metabolism [28]: 302 pmol/min/mg
- inhibition [31]: 18.8%
- inhibition at 10 µM [32]: 26%
- IC50 [7]: 0.96 nM
- inhibition [34]: 0%
- Activity [8]: inactive
- inhibition [36]: 1%
- clearance [38]: 68.2 mL/min/kg
- IC50 [3]: 47 nM
- inhibition [40]: 0%
- inhibition [42]: 0%
- IC50 [43]: 31 nM
Compound: CC(=O)N1[C@@H]2CC[C@H]1C=C(c1cnc(NCc3ccc4c(c3)OCC4)c(C(=O)NC[C@H]3COc4ccccc4O3)c1)C2 (mixture of isomers)
- Activity [11]: Non-toxic
- inhibition [12]: Active
- inhibition [16]: Active
- inhibition [17]: Active
- inhibition [18]: Active
- Activity [26]: Non-toxic
- Activity [29]: Non-toxic
- inhibition [30]: Active
- IC50 [33]: 13 nM
- Activity [35]: Non-toxic
- inhibition [37]: Active
- Activity [39]: Non-toxic
- inhibition at 10 µM [41]: 36%

- Efficacy [5]: > 95%
- IC50 [7]: 11 nM
- Activity [8]: inactive
- IC50 [3]: 140 nM
Compound: CCCn1cc(-c2cnc(NCc3ccc4c(c3)OCC4)c(C(=O)NCC3COc4ccccc4O3)c2)cn1 (racemic)

- Efficacy [5]: > 95%
- IC50 [7]: 84 nM
- Activity [8]: inactive
- IC50 [3]: 400 nM
Compound: CCCn1cc(-c2cnc(NCc3ccc4sccc4c3)c(C(=O)NCC3COc4ccccc4O3)c2)cn1 (racemic)
- viability at 50 µM [4]: 92%
- viability at 2 µM [6]: 101%

- Efficacy [5]: > 95%
- IC50 [7]: 7.2 nM
- Activity [8]: inactive
- IC50 [3]: 350 nM
Compound: C[C@@H]1CN(c2cnc(NCc3ccc4c(c3)OCC4)c(C(=O)NC[C@H]3COc4ccccc4O3)c2)C[C@H](C)O1

- Efficacy [5]: > 95%
- IC50 [7]: 24 nM
- Activity [8]: inactive
- IC50 [3]: 110 nM
Compound: CCn1cc(-c2cnc(NCc3ccc4c(c3)OCO4)c(C(=O)NC[C@H]3COc4ccccc4O3)c2)cn1
